Assay results published in paper PMC7614683, “A small molecule PI3Kα activator for cardioprotection and neuroregeneration” (Nature, 2023).

Experiments:
PI3Kα-WT MEFs = assay: pAKT S473 western blot, PI3Kα-WT MEFs; type: cell-based; conditions: Mus musculus, 0.25 h; 15 min; read-out: EC50 of pAKT^S473 induction
Procedure: Unless otherwise indicated, western blotting was performed with ECL detection. For time course studies, A549 cells were seeded at 250,000 cells per well in 6-well plates in RPMI (10% FBS + 1 mM Na-Pyruvate + 1% P/S) and allowed to adhere overnight. The next day they were serum-starved for 4 h prior to treatment with 100 nM insulin or 5 μM 1938, for the indicated time (5 min to 48 h) at 37°C, 5% CO2. For 1938 titration assays in MEFs, cells were seeded at 150,000 cells per well in 6-well plates and allowed to adhere overnight. The next day they were serum-starved for 4 h prior to treatment with insulin (1 μM), 1938 (0.2 to 30 μM, final DMSO concentration of 1.5%) or inhibitors (final DMSO concentration of ≤1.5%) for 15 min at 37°C, 5% CO2. Cells were washed twice with cold PBS and lysed using cold RIPA buffer (25 mM Tris.HCl pH 7.6, 150 mM NaCl, 1% NP-40, 1% sodium deoxycholate, 0.1% SDS supplemented with protease/phosphatase inhibitor cocktail from Merck). To remove cell debris, homogenates were spun at 13,000 rpm for 15 min at 4°C and the supernatant fraction recovered. Protein concentration was determined by colorimetric assay (BCA assay, Promega). […]

full length p110α/p85α = target: T1, full length p110α/p85α (Homo sapiens, UniProt P42336); assay: Surface plasmon resonance; type: binding; conditions: immobilized p110α/p85α; read-out: Kd for PI3Kα by surface plasmon resonance
T1 construct: Full-length human p110α was expressed either in a complex with full-length human p85α (for HTS, biochemistry and HDX-MS); 6xHis tag followed by TEV protease site (N); host or cells: Spodoptera frugiperda Sf9, baculovirus
T1 sequence (P42336 whole entry): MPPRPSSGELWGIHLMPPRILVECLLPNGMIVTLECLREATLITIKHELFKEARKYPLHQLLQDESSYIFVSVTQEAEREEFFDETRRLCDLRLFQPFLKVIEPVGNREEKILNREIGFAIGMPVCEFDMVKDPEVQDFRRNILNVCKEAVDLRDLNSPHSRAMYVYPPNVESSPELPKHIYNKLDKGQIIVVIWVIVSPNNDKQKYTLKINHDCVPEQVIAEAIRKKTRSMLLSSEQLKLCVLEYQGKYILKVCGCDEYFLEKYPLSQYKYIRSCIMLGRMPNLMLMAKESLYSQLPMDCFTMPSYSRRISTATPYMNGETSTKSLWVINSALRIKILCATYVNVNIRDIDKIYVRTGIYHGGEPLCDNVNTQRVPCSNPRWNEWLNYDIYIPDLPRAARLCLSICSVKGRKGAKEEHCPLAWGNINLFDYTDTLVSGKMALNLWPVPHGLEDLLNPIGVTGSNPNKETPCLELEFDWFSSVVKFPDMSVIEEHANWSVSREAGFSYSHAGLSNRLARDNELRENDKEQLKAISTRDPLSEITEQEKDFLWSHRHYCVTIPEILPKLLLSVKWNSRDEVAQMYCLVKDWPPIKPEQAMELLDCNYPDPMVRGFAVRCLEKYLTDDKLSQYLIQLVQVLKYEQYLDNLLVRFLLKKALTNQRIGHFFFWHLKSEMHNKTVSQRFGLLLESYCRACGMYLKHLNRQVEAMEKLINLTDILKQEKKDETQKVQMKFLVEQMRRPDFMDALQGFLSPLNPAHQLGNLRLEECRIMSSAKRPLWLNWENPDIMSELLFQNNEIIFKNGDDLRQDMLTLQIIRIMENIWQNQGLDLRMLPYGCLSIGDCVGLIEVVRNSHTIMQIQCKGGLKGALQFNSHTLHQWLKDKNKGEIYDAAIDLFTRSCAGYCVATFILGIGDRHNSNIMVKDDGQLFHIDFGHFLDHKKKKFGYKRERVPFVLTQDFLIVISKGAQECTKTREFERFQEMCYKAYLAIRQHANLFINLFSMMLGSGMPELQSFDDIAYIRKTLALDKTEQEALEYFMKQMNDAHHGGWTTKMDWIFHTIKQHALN
T1 sequence (P27986 whole entry partner): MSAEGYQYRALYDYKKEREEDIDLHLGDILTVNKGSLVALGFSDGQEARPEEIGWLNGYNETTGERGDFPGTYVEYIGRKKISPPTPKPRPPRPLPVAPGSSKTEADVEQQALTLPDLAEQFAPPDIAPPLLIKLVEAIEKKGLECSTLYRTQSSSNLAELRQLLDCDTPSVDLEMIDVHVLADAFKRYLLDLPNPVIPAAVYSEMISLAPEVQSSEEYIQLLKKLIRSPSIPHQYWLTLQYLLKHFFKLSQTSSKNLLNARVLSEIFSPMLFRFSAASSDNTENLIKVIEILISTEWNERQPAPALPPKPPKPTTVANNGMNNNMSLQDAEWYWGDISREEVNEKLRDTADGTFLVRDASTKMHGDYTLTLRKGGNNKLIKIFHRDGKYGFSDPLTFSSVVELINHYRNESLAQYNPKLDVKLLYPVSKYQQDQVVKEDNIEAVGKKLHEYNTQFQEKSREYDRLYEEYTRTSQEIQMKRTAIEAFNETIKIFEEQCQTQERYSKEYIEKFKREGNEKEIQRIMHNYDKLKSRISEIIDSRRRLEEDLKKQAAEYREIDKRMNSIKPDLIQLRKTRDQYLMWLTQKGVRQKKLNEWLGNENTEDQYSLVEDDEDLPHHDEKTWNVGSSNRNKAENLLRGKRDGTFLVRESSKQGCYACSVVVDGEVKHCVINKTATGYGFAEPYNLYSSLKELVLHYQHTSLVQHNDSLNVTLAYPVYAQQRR
Procedure: SPR was performed with a Biacore T200, using CM7-sensor chips (Cytiva). Both reference control and analyte channels were equilibrated in HBS-P (Cytiva) supplemented with 5% (v/v) DMSO at 20°C. Full length p110α/p85α was immobilised onto the chip surface via amide coupling using the supplied kit (Cytiva) to reach an RU value of approximately 25,000 RU. Serial dilutions (1:2) of 1938 starting from 500 μM were injected over the chip for 60 s at 30 μL/min, with a 60 sec dissociation time. The data were double-referenced to the response on a blank but similarly modified flow channel and a buffer-only injection was subtracted. Any differences in the DMSO concentrations between the sample and buffer were corrected using the in-built solvent correction protocol. After reference and buffer signal correction, sensogram data were fitted using Prism 9.4.1 (GraphPad Software Inc). The responses at equilibrium (Req) of the were then fitted to a 1:1 binding model with a linear non-specific phase to determine Kd: (1) Req=(CRmax/C+Kd)+DC+B where C is the analyte concentration and Rmax is the maximum response at saturation, D is a non-specific response and B is the background resonance. Data were replotted correcting for the linear non-specific response. The binding was performed in triplicate.

PI3Kα H1047R mutant = PI3Kα H1047R mutant (Homo sapiens, UniProt P42336, H1047R); assay: ADP-Glo catalytic activity, oncogenic mutant H1047R; type: biochemical
Chain of PI3Kα H1047R mutant (P42336 whole entry H1047R): as the sequence (P42336 whole entry) above, with H1047R counted along it
Chain of PI3Kα H1047R mutant (P27986 whole entry partner): as the sequence (P27986 whole entry partner) above
Procedure: For characterisation of the effects of 1938 on in vitro PI3K enzymology, all reactions were performed at room temperature with 384 white-polystyrene plates (Corning #3574). The final DMSO concentration in the assay was between 0.5%-1.8%. The reaction mixture contained 2 μl PI3K enzyme, 2 μl compound and/or pY and 2 μl of liposome substrate mixed with ATP. ATP was used at a final concentration of 200 μM, unless otherwise stated. The enzyme and compounds were pre-incubated for 10 min prior to addition of substrate. The reaction was allowed to proceed for up to 45 min at room temperature, before addition of 6 μl of ADP-Glo R1 to terminate the reaction. The plate was incubated for 60 min, followed by addition of 12 μl of ADP-Glo R2 and incubated further for 60 min in the dark. Data was expressed as velocity (nmol of ADP generated/nmol of enzyme/sec). ADP-ATP standard curves were performed according to the manufacturer’s instructions. Luminescence was read using a PHERAstar® plate reader with software version 5.41, and analyses were performed using GraphPad Prism 8/9.

**Q.** How did the EC50 (PI3Kα-WT MEFs) turn out when `CCN1CCN(c2ccc(Nc3cc(Nc4cccc5c4N(C(C)=O)CC5)ccn3)cc2)CC1` [Compound 1938] was run?
**A.** 2 to 4 µM

**Q.** What about the Kd (full length p110α/p85α) of the same molecule?
**A.** 36 ± 5 µM

**Q.** And the “activation of H1047R mutant” value (PI3Kα H1047R mutant)?
**A.** levels comparable with stimulation with pY
